Source: patent publication US7863438B2 (Yamasa Corporation, priority 2005, dated 2011)
Structures can show the parent of a compound that is named as a salt. Where two headings read alike, the source gives them in different places.

Legend:
[1] = Ambient-temperature stability of PAPS lithium salt in aqueous solution or in the form of powder (HPLC determination of PAPS)
Procedure: ODS-[…] column (product of YMC) • Eluent: 50 mM Aqueous potassium dihydrogenphosphate solution • Flow rate: 0.6 mL/minute • Detection: Absorbance (A) at 270 nm • Temperature: 20° C. The present invention will next be specifically described in detail with reference to Referential Example and Example. However, it will be understood that the present invention is not limited to the Example. Quantitative determination of PAPS was performed under the aforementioned HPLC conditions. Ambient-temperature stability of a PAPS lithium salt (product of Calbiochem) was evaluated in an aqueous solution or in the form of powder as follows. […] As used herein, “percent undecomposed” or “percentage of undecomposed PAPS” is the ratio of the remaining amount of PAPS to the initial amount thereof.

[2] = powder 10 mg, desiccator (relative humidity: 10%), ambient temperature (23±2° C.), seven days

| Structure (SMILES) | Undecomposed PAPS (%) [2] | Undecomposed PAPS (%) | further results |
| --- | --- | --- | --- |
| Nc1ncnc2c1ncn2[C@@H]1O[C@H](COP(=O)(O)OS(=O)(=O)O)[C@@H](OP(=O)(O)O)[C@H]1O [Polyethyleneimine salt, 3′-phosphoadenosine 5′-phosphosulfate] | 94% |  |  |
| Nc1ncnc2c1ncn2[C@@H]1O[C@H](COP(=O)(O)OS(=O)(=O)O)[C@@H](OP(=O)(O)O)[C@H]1O [Lithium salt, 3′-phosphoadenosine 5′-phosphosulfate] | 65% |  | Undecomposed of PAPS (%) ([1]; aqueous solution 10 mg/mL, standing still at 4° C. for seven days): >99%; Undecomposed of PAPS (%) ([1]; aqueous solution 10 mg/mL, standing still at 23° C. for seven days): 96%; stability in aqueous solution (in words) ([1]; aqueous solution, seven days): relatively stable; Undecomposed of PAPS (%) ([1]; powder (10 mg), standing still at 4° C. for seven days): 89%; Undecomposed of PAPS (%) ([1]; powder (10 mg), standing still at 23° C. for seven days): 65%; decomposed (%) ([1]; powder, ambient temperature, seven days): 35%; stability in the form of powder (in words) ([1]; powder, seven days): very unstable |
| Nc1ncnc2c1ncn2[C@@H]1O[C@H](COP(=O)(O)OS(=O)(=O)O)[C@@H](OP(=O)(O)O)[C@H]1O [Triethylamine salt, 3′-phosphoadenosine 5′-phosphosulfate] | 100% |  |  |
| Nc1ncnc2c1ncn2[C@@H]1O[C@H](COP(=O)(O)OS(=O)(=O)O)[C@@H](OP(=O)(O)O)[C@H]1O [L-Lysine salt, 3′-phosphoadenosine 5′-phosphosulfate] |  | 27% |  |
| Nc1ncnc2c1ncn2[C@@H]1O[C@H](COP(=O)(O)OS(=O)(=O)O)[C@@H](OP(=O)(O)O)[C@H]1O [Putrescine salt, 3′-phosphoadenosine 5′-phosphosulfate] | 80% |  |  |
| Nc1ncnc2c1ncn2[C@@H]1O[C@H](COP(=O)(O)OS(=O)(=O)O)[C@@H](OP(=O)(O)O)[C@H]1O [Diethylamine salt, 3′-phosphoadenosine 5′-phosphosulfate] | 96% |  |  |
| Nc1ncnc2c1ncn2[C@@H]1O[C@H](COP(=O)(O)OS(=O)(=O)O)[C@@H](OP(=O)(O)O)[C@H]1O [Piperidine salt, 3′-phosphoadenosine 5′-phosphosulfate] |  | 92% |  |
| Nc1ncnc2c1ncn2[C@@H]1O[C@H](COP(=O)(O)OS(=O)(=O)O)[C@@H](OP(=O)(O)O)[C@H]1O [L-Arginine salt, 3′-phosphoadenosine 5′-phosphosulfate] |  | 57% |  |
| Nc1ncnc2c1ncn2[C@@H]1O[C@H](COP(=O)(O)OS(=O)(=O)O)[C@@H](OP(=O)(O)O)[C@H]1O [Ethanolamine salt, 3′-phosphoadenosine 5′-phosphosulfate] | 13% |  |  |
| Nc1ncnc2c1ncn2[C@@H]1O[C@H](COP(=O)(O)OS(=O)(=O)O)[C@@H](OP(=O)(O)O)[C@H]1O [Potassium salt, 3′-phosphoadenosine 5′-phosphosulfate] | 22% |  |  |
| Nc1ncnc2c1ncn2[C@@H]1O[C@H](COP(=O)(O)OS(=O)(=O)O)[C@@H](OP(=O)(O)O)[C@H]1O [Ethylamine salt, 3′-phosphoadenosine 5′-phosphosulfate] |  | 48% |  |
| Nc1ncnc2c1ncn2[C@@H]1O[C@H](COP(=O)(O)OS(=O)(=O)O)[C@@H](OP(=O)(O)O)[C@H]1O [Ammonium salt, 3′-phosphoadenosine 5′-phosphosulfate] | 4.1% |  |  |
| Nc1ncnc2c1ncn2[C@@H]1O[C@H](COP(=O)(O)OS(=O)(=O)O)[C@@H](OP(=O)(O)O)[C@H]1O [Trimethylamine salt, 3′-phosphoadenosine 5′-phosphosulfate] |  | 89% |  |
| Nc1ncnc2c1ncn2[C@@H]1O[C@H](COP(=O)(O)OS(=O)(=O)O)[C@@H](OP(=O)(O)O)[C@H]1O [L-Histidine salt, 3′-phosphoadenosine 5′-phosphosulfate] | 98% |  |  |
| Nc1ncnc2c1ncn2[C@@H]1O[C@H](COP(=O)(O)OS(=O)(=O)O)[C@@H](OP(=O)(O)O)[C@H]1O [Imidazole salt, 3′-phosphoadenosine 5′-phosphosulfate] | 2.9% |  |  |
| Nc1ncnc2c1ncn2[C@@H]1O[C@H](COP(=O)(O)OS(=O)(=O)O)[C@@H](OP(=O)(O)O)[C@H]1O [Sodium salt, 3′-phosphoadenosine 5′-phosphosulfate] | 64% |  |  |
